Source: publication PMC10107917 (ACS Medicinal Chemistry Letters, 2023)
Read-outs that look alike come from different tables or passages of the source. Bridge positions count the residues as written; N and C are the ends. Peptide text beside a SMILES is read from it.

Molecular target: T1, human recombinant furin (Homo sapiens, UniProt P09958)
T1 construct: Soluble human recombinant furin was kindly gifted; gift of Dr Anna Kwiatkowska (group of Prof. Robert Day, Université de Sherbrooke)
Type: biochemical
Conditions: for Ki / IC50: ± SEM; for Ki: Cheng-Prusoff from IC50, competitive mode assumed, Km 1.90 µM; for IC50: triplicate, substrate 20 µM
Protocol: Initially, the activities of the furin inhibitors were screened at three concentrations, i.e., 2.4, 24.0, and 77.0 nM (Figure 4). For selected peptides 3, 5, and 6 and the reference FI, the inhibitory constants (Ki) were calculated (Table 2). Except for the bicyclic peptide 4, all of the inhibitors almost completely abolished the enzyme activity at the highest tested concentration. Peptide 4 was explicitly the weakest inhibitor in the series, also when compared with its monocyclic disulfide-bridged counterpart 1. When the inhibitory activities were analyzed at the lowest tested concentration (2.4 nM), three peptides (3, 5, and 6) reduced the furin activity to less than 50% of its initial noninhibited activity. All of them have an additional basic amino acid at their N-termini (in MD simulations this is depicted as a residue with number “0”). […] Such close inhibitory potency was not observed in the case of an analogous pair, i.e., 2 and 5. […] The two disulfide-bridged peptides, FI and 1, differ only at the P4 position, having Lys and Arg, respectively. […]
The IC50 values (inhibitor concentrations giving 50% inhibition of enzyme activity) were calculated from plots of enzyme activity (% of control sample) versus the inhibitor’s concentration using a four-parameter fit model (GraFit 5.0.12 Erithacus Software Ltd.). The IC50 values were determined from triplicate measurements with at least seven different inhibitor concentrations. The K i values […] were calculated using the Cheng-Prusoff equation, assuming the competitive mode of inhibition, according to the following relationship: IC50 = K i(1+S/Km). All measurements were performed using a Fluostar Omega microplate reader (BMG Labtech, Germany) and 96-well black plates (BRAND, Germany). Recombinant human matriptase-1/ST14 catalytic domain was purchased from R&D Systems, USA. Recombinant human matriptase-2 was obtained from Enzo Life Sciences, Switzerland.
Soluble human recombinant furin was kindly gifted by Dr Anna Kwiatkowska (group of Prof. Robert Day from Université de Sherbrooke).4
The following assay buffers were used: […] (matriptase-1 and matriptase-2), pH 7.5 100 mM HEPES with 1 mM CaCl 2 and 1.8 mg/mL BSA (furin). The substrates used in the assays were as follows: for matriptase-1 and matriptase-2 Boc-Gln-Ala-Arg-AMC (Pepta Nova, Germany) in final concentration of 5 µM, for furin […] (Pepta Nova, Germany) in final concentration of 20 µM. Enzymes concentrations were as follows: 1.25 ng/mL of matriptase-1, 1.51 U/mL for matriptase-2, and 1.1 nM for furin. In the case of matriptase-1 and matripase-2 concentrations were calculated according to information provided by the suppliers.
In short, the tested compounds were added to the appropriate protease in different concentrations and incubated in an assay buffer at 37 °C for 30 min. After this time, a solution of appropriate substrate was added. Reactions were monitored for at least 40 min at 37 °C. The final volume in each well was 200 µL for matriptases and 100 µL for furin. Measurements were carried out using excitation and emission wavelengths of 380 nm and 450 nm. The percentage inhibition of an enzyme was calculated relative to the control sample without an inhibitor. The K m value for furin substrate was determined by incubating the enzyme with its substrate in various concentrations as recommended.5 Plots of the substrate concentration versus the initial reaction velocity were analyzed according to Michaelis-Menten equation using GraFit 5.0.12 Erithacus Software Ltd. A double reciprocal (Lineweaver-Burk) plot was used to determine the Michaelis constant K m value. K m value determined for furin was 1.90 µM.
Total furin-like enzyme inhibition/activity in PANC-1 cell lysates
Cell line and cell culture. The pancreatic cancer cell line, PANC-1, was obtained from the American Type Culture Collection, ATCC (Manassas, USA). […]

T1 sequence (P09958 108-715 limits assumed): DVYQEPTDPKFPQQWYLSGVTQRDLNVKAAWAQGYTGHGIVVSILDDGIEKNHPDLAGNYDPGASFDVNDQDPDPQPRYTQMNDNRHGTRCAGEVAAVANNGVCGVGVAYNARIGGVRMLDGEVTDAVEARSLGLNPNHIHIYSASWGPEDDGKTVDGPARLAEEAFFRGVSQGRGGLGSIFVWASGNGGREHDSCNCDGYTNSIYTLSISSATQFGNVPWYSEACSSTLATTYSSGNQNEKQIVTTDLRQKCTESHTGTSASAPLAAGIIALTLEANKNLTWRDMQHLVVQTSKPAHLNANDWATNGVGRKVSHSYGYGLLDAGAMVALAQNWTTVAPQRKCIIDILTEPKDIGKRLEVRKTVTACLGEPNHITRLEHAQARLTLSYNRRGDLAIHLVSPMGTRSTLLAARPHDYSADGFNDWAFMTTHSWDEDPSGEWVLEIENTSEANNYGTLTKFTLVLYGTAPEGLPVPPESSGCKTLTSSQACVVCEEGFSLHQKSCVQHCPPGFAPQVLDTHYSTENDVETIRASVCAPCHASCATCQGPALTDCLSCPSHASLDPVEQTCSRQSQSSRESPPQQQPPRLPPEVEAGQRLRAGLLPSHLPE

For CC[C@H](C)[C@@H]1NC(=O)[C@@H]2CCCN2C(=O)[C@@H]2CCCN2C(=O)[C@H]([C@@H](C)CC)NC(=O)[C@H](CO)NC(=O)[C@H](CCCCN)NC(=O)[C@H](CCCCN)NC(=O)[C@@H](NC(=O)[C@H](CCCNC(=N)N)NC(=O)[C@@H](N)CCCCN)CSSC[C@@H](C(=O)N[C@@H](Cc2ccccc2)C(N)=O)NC1=O [FI, Lys-Arg-Cys(&)-Lys-Lys-Ser-Ile-Pro-Pro-Ile-Cys(&)-Phe-NH2, reference compound] (H-KRCKKSIPPICF-NH2; disulfide 3-11; N-terminus assumed), the “furin activity versus control with no inhibitor added” value (inhibitor 2.4 nM) was 66.76%, the “furin activity versus control with no inhibitor added” value (inhibitor 24.0 nM) was 9.86% and the “furin activity versus control with no inhibitor added” value (inhibitor 77.0 nM (highest tested concentration)) was 0.31%. For the same molecule, the Ki was 0.38 ± 0.02 nM and the IC50 was 4.42 ± 0.22 nM.

A Ki of 0.27 ± 0.02 nM and an IC50 of 3.07 ± 0.2 nM were found for CC[C@H](C)[C@@H]1NC(=O)[C@@H]2CCCN2C(=O)[C@@H]2CCCN2C(=O)[C@H]([C@@H](C)CC)NC(=O)[C@H](CO)NC(=O)[C@H](CCCCN)NC(=O)[C@H](CCCCN)NC(=O)[C@@H](NC(=O)[C@H](CCCNC(=N)N)NC(=O)[C@H](CCCNC(=N)N)NC(=O)[C@@H](N)CCCNC(=N)N)CSSC[C@@H](C(=O)N[C@@H](Cc2ccccc2)C(N)=O)NC1=O [inhibitor 3, Arg-Arg-Arg-Cys(&)-Lys-Lys-Ser-Ile-Pro-Pro-Ile-Cys(&)-Phe-NH2] (H-RRRCKKSIPPICF-NH2; disulfide 4-12) in this work.

A Ki of 0.21 ± 0.01 nM and an IC50 of 2.41 ± 0.12 nM were found for CC[C@H](C)[C@@H]1NC(=O)[C@@H]2CCCN2C(=O)[C@@H]2CCCN2C(=O)[C@H]([C@@H](C)CC)NC(=O)[C@H](CO)NC(=O)[C@H](CCCCN)NC(=O)[C@H](CCCCN)NC(=O)[C@@H]2CSSC[C@H](NC1=O)C(=O)N[C@@H](Cc1ccccc1)C(=O)N[C@@H](CCCCN)C(=O)N[C@@H](CCCNC(=N)N)C(=O)N[C@@H](CCCNC(=N)N)C(=O)N2 [inhibitor 5, &^1Lys-Arg-Arg-Cys(&^2)-Lys-Lys-Ser-Ile-Pro-Pro-Ile-Cys(&^2)-Phe&^1] (cyclo(KRRCKKSIPPICF); disulfide 4-12) in this work.

A Ki of 0.25 ± 0.01 nM and an IC50 of 2.91 ± 0.17 nM were found for CC[C@H](C)[C@@H]1NC(=O)[C@@H]2CCCN2C(=O)[C@@H]2CCCN2C(=O)[C@H]([C@@H](C)CC)NC(=O)[C@H](CO)NC(=O)[C@H](CCCCN)NC(=O)[C@H](CCCCN)NC(=O)[C@@H]2CSSC[C@H](NC1=O)C(=O)N[C@@H](Cc1ccccc1)C(=O)N[C@@H](CCCNC(=N)N)C(=O)N[C@@H](CCCNC(=N)N)C(=O)N[C@@H](CCCNC(=N)N)C(=O)N2 [inhibitor 6, &^1Arg-Arg-Arg-Cys(&^2)-Lys-Lys-Ser-Ile-Pro-Pro-Ile-Cys(&^2)-Phe&^1] (cyclo(RRRCKKSIPPICF); disulfide 4-12) in this work.
